“Also recorded” adds a separate entry of the source. Counter-ions that a name gives are not always drawn. Like-named read-outs stand apart in the source and are kept apart here.
Columns and labels:
[1] = tested on: epithelial cells/adenocytes and connective tissue/capillaries; assay: Preferential staining of epithelial cells/adenocytes or connective tissue/capillaries; assay type: in vivo, mouse; details: 5 mg/ml for curcumin, 1 mg/ml for all other dyes
Experimental: Drinking water containing 2% (w/v) dextran sodium sulfate (DSS) was given to 8-week-old C57B6 mice (male, approximately 20 g) for 7 days. After intraperitoneal injection of 0.2 ml of 5% chloral hydrate for anesthesia, the mouse abdominal wall was incised vertically to about 1 cm, and the gastrointestinal tract was raised over the abdominal wall to about 1 cm. Blood flow to the gastrointestinal tract was maintained during this time by the blood vessel flowing into the mesenteric attachment site. The gastrointestinal tract was incised vertically to about 1 cm on opposite side of the mesenteric attachment site, including the tunica muscularis and mucosa. The opposite side of the mesenteric attachment site was incised in order to prevent severance and damage of the blood vessel and minimize bleeding. When the incision site of the gastrointestinal tract was opened vertically, the mucosal surface of the gastrointestinal tract, as the food channel, became visible. When food digestion products were present they were wiped off with tissue paper.
A metal ring (outer diameter: 16 millimeters, inner diameter, 6 millimeters) was placed on a laboratory stage, and a rapid bonding adhesive (AronAlpha) was coated over the entire periphery of the ring surface on one side. Forceps were used to hold the rapid bonding adhesive-coated metal ring with the adhesive-coated surface facing downward, and it was set on the pronase-treated mucosal surface. During a period of about 5 minutes, the metal ring became anchored to the mucosa with the rapid bonding adhesive, and the region where the dye compound was to be applied was rinsed with PBS.
In order to avoid drying of the mucosal surface, a curcumin stock solution or sulfuretin stock solution diluted with physiological saline (PBS) (see Tables 1 to 3 for the dilution factors) was added dropwise onto the pronase-treated mucosal surface, and after allowing it to stand for 1 minute, it was rinsed 3 times with PBS, a cover glass was placed over the metal ring, and the objective lens of a multiphoton laser microscope (FV1000 MPE by Olympus Corp.) was brought near to the top of the cover glass for image observation.
The procedure from administration of the dye compound to observation was conducted as described above under “Evaluation of stainability” (same hereunder). Also, the administered concentration of dye to the mucosal surface was 5 mg/ml for curcumin as Dye No. 1, and 1 mg/ml for all of the other dyes.

[2] = tested on: MDCK-GFP-Ras^V12 cells mixed with MDCK normal cells; assay: In vitro assay of MDCK-Ras^V12 cancerized cell small aggregates as a very early cancer model; assay type: cell-based, canine; details: excitation 750, 800, 850, 900 nm, red fluorescence
Experimental: The MDCK normal cells were cultured in a 10 cm dish, and the MDCK-GFP-Ras^V12 cells were cultured in a 6 cm dish. The culture solution used for the MDCK normal cells was DMEM (containing Phenol Red)+10% FBS+penicillin/streptomycin.
The solution used for the MDCK-GFP-Ras^V12 cells was DMEM (containing Phenol Red)+10% FBS+penicillin/streptomycin+Zeocin (400 μg/ml)+blasticidin (5 μg/ml). […] The seeding was carried out using a DMEM+10% FBS+penicillin/streptomycin culture solution, to 1.0 to 3.0×10^4 cells per well of the 96-well dish. Tetracycline at a concentration of 2 μg/ml was added to the culture solution after 4 days when seeding was to 1.0×10^4 or after 1 day when seeding was to 3.0×10^4, and GFP-Ras^V12 was expressed, forming cancerized cell small aggregates among the MDCK normal cells (NPL 3). After 18 to 36 hours, the cells in each of the wells were rinsed 3 times with 200 μl of PBS, and then the Prestwick Chemical Library compounds and the Ministry of Health, Labour and Welfare-approved food additives, each diluted to 1 μM with a 100 μl volume of PBS, were added to the respective wells and taken up by the cells for 5 minutes at room temperature. They were then rinsed 3 times with 200 μl of PBS, and in certain cases further rinsed once with 100 μl of DMEM without Phenol Red, and observed under a multiphoton laser microscope.

[3] = cited from earlier work
[4] = tested on: cancer lesion site versus normal mucosa of large intestine; assay: Comparison of staining patterns in normal site and cancer tumor site of large intestine; assay type: in vivo, mouse; details: Example 1; regardless of pronase treatment of the mucosal surface
Experimental: Drinking water containing 2% (w/v) dextran sodium sulfate (DSS) was given to 8-week-old C57B6 mice (male, approximately 20 g) for 7 days. After intraperitoneal injection of 0.2 ml of 5% chloral hydrate for anesthesia, the mouse abdominal wall was incised vertically to about 1 cm, and the gastrointestinal tract was raised over the abdominal wall to about 1 cm. Blood flow to the gastrointestinal tract was maintained during this time by the blood vessel flowing into the mesenteric attachment site. The gastrointestinal tract was incised vertically to about 1 cm on the opposite side of the mesenteric attachment site, including the tunica muscularis and mucosa. The opposite side of the mesenteric attachment site was incised in order to prevent severance and damage of the blood vessel and minimize bleeding. When the incision site of the gastrointestinal tract was opened vertically, the mucosal surface of the gastrointestinal tract, as the food channel, became visible. When food digestion products were present they were wiped off with tissue paper. In order to more clearly observe the gastrointestinal tract mucosal surface, a 1% pronase solution was dropped onto the mucosal surface and was allowed to stand still for 15 minutes. This pronase treatment removed the mucus from the mucosal surface, rendering the cell structure more easily visible. Next, the pronase was removed from the mucosal surface and rinsed with physiological saline (PBS). A metal ring (outer diameter: 16 millimeters, inner diameter, 6 millimeters) was placed on a laboratory stage, and a rapid bonding adhesive (AronAlpha) was coated over the entire periphery of the surface on one side. Forceps were used to hold the rapid bonding adhesive-coated metal ring with the adhesive-coated surface facing downward, and it was set on the pronase-treated mucosal surface. During a period of about 5 minutes, the metal ring became anchored to the mucosa with the rapid bonding adhesive, and the region where the dye compound was to be applied was rinsed with PBS. […] FIG. 32 is a drawing for illustration of a stainability evaluation step for the aforementioned dye compounds. […] Z stack image). […] Both of the staining photographs of the normal site and cancer tumor site were taken under the same conditions.

[5] = cited from earlier work; remark: listed apart in the source
[6] = Prestwick Chemical Library compounds, 1 μM, 5 minutes
[7] = Ministry of Health, Labour and Welfare-approved food additives, 1 mg/ml

Row | Compound | Cell group preferentially stained (epithelial cells/adenocytes or connective tissue/capillaries) [1] | LD50 ([3]; Mouse, Oral) | other results
1 | CC1(C)C(/C=C/C=C/C=C/C=C2\N(CCCCS(=O)(=O)O)c3ccc4ccccc4c3C2(C)C)=[N+](CCCCS(=O)(=O)[O-])c2ccc3ccccc3c21 [Indocyanine green, reference compound] | preferentially stained epithelial cells/adenocytes | – | –
2 | meclocycline sulfosalicylate [reference compound] | – | – | Staining of GFP-Ras^V12 positive cancerized cells versus MDCK normal cells [2, 6]: intensely labeled in GFP-Ras^V12 positive cancerized cell small aggregates compared to normal cells; also recorded: GFP-Ras^V12 positive cells were preferentially stained
3 | CC1=C(/C=C/C(C)=C/C=C/C(C)=C/C=C/C=C(C)/C=C/C=C(C)/C=C/C(=O)[C@]2(C)C[C@@H](O)CC2(C)C)C(C)(C)C[C@H](O)C1 [Capsanthin] | – | 300 mg/kg | –
4 | O=C(O[C@@H]1Cc2c(O)cc(O)cc2O[C@@H]1c1cc(O)c(O)c(O)c1)c1cc(O)c(O)c(O)c1 [Epigallocatechin gallate] | preferentially stained epithelial cells/adenocytes | 2170 mg/kg | –
5 | COc1cccc2c1C(=O)c1c(O)c3c(c(O)c1C2=O)C[C@@](O)(C(=O)CO)C[C@@H]3O[C@H]1C[C@H](N)[C@H](O)[C@H](C)O1 [doxorubicin hydrochloride, reference compound] | – | – | Staining of GFP-Ras^V12 positive cancerized cells versus MDCK normal cells ([2]; Prestwick Chemical Library compounds, 1 μM, 5 minutes, hydrochloride): intensely labeling MDCK normal cells compared to cancerized cell small aggregates; also recorded: GFP-Ras^V12 cells were not specifically stained, but normal cells were stained
6 | Oc1ccc(-c2ccc3c(O)cc(O)cc3[o+]2)cc1.[Cl-] [Apigeninidin] | – | 300 mg/kg | –
7 | COc1cc(-c2ccc(N=Nc3ccc4c(S(=O)(=O)[O-])cc(S(=O)(=O)[O-])c(N)c4c3O)c(OC)c2)ccc1N=Nc1ccc2c(S(=O)(=O)[O-])cc(S(=O)(=O)[O-])c(N)c2c1O.[Na+].[Na+].[Na+].[Na+] [Chicago sky blue 6B, reference compound] | – | – | Staining of GFP-Ras^V12 positive cancerized cells versus MDCK normal cells [2, 6]: labeling both cancerized cell small aggregates and normal cells; Staining of GFP-Ras^V12 positive cancerized cells versus MDCK normal cells ([2]; Prestwick Chemical Library compounds, 1 μM, 5 minutes, listed as Chicago Sky Blue 6B): equal staining of normal cells and cancer cells
8 | O=C(O)c1nn(-c2ccc(S(=O)(=O)O)cc2)c(O)c1N=Nc1ccc(S(=O)(=O)O)cc1 [Yellow #4, tartrazine] | – | 12750 mg/kg | –
9 | O=S(=O)([O-])c1ccc(N=Nc2c(O)ccc3cc(S(=O)(=O)[O-])ccc23)cc1.[Na+].[Na+] [Yellow #5, Sunset Yellow FCF] | – | >6000 mg/kg | –
10 | O=C1OC2(c3ccccc31)c1cc(I)c(O)c(I)c1Oc1c2cc(I)c(O)c1I [Red #3, erythrosine] | preferentially stained epithelial cells/adenocytes | – | Staining of GFP-Ras^V12 positive cancerized cells versus MDCK normal cells [2, 7]: GFP-Ras^V12 positive cells were preferentially stained; Staining of GFP-Ras^V12 positive cancerized cells versus MDCK normal cells ([2]; Ministry of Health, Labour and Welfare-approved food additives, 1 mg/ml, listed as erythrosine): labeled GFP-Ras^V12-positive cancerized cell small aggregates more intensely than normal cells; Staining of cancer lesion sites compared with normal mucosa [4]: stained cancer lesion sites much more intensely than normal mucosa; LD50 ([3]; mouse, in vivo, po): 6800 mg/kg
11 | CC1=C(/C=C/C(C)=C/C=C/C(C)=C/C=C/C=C(C)/C=C/C=C(C)/C=C/C2=C(C)CCCC2(C)C)C(C)(C)CCC1 [β-Carotene] | preferentially stained epithelial cells/adenocytes | – | LD50 ([5]; Rat, Oral): 5000 mg/kg
12 | COc1cc(-c2[o+]c3cc(O)cc(O)c3cc2O)cc(OC)c1O [Malvidin] | – | – | LD50 ([3]; Mouse, Intra-venous): 18 mg/kg
13 | O=C([O-])c1c(Cl)c(Cl)c(Cl)c(Cl)c1-c1c2cc(I)c(=O)c(I)c-2oc2c(I)c([O-])c(I)cc12.[Na+].[Na+] [Red #105 (720 nm)] | – | 6480 mg/kg | –
14 | Oc1ccc(-c2[o+]c3cc(O)cc(O)c3cc2O)cc1 [Pelargonidin] | – | 300 mg/kg | –
15 | Oc1cc(O)c2cc(O)c(-c3cc(O)c(O)c(O)c3)[o+]c2c1 [Delphinidin] | – | – | LD50 ([5]; rat, in vivo): 1250 mg/kg
16 | COc1cc(-c2[o+]c3cc(O)cc(O)c3cc2O)cc(O)c1O [Petunidine] | preferentially stained epithelial cells/adenocytes | – | LD50 ([3]; Mouse, Intra-abdominal): 4110 mg/mL
17 | COc1cc(/C=C/C(=O)CC(=O)/C=C/c2ccc(O)c(OC)c2)ccc1O [Curcumin (pure), Curcumin] | – | – | LD50 ([3]; mouse, in vivo, po): 2000 mg/kg
18 | O=c1c(O)c(-c2ccc(O)c(O)c2)oc2cc(O)cc(O)c12 [Quercetin] | intensely stained connective tissue/capillaries and faintly stained epithelial cells/adenocytes | – | –
19 | Oc1ccc2cc(O)c(-c3cc(O)c(O)c(O)c3)[o+]c2c1 [Robinetinidin] | preferentially stained connective tissue/capillaries | – | –
20 | Oc1cc(O)c2ccc(-c3cc(O)c(O)c(O)c3)[o+]c2c1 [Tricetinidin] | preferentially stained epithelial cells/adenocytes | 300 mg/kg | –
21 | O=c1c(O)c(-c2cc(O)c(O)c(O)c2)oc2cc(O)cc(O)c12 [Myricetin] | preferentially stained epithelial cells/adenocytes | 300 mg/kg | –
22 | O=C1/C(=C2\Nc3ccc(S(=O)(=O)[O-])cc3C2=O)Nc2ccc(S(=O)(=O)[O-])cc21.[Na+].[Na+] [Blue #2, indigo carmine] | preferentially stained connective tissue/capillaries | 2000 mg/kg | –
23 | CCN(Cc1cccc(S(=O)(=O)[O-])c1)c1ccc(C(=C2C=CC(=[N+](CC)Cc3cccc(S(=O)(=O)[O-])c3)C=C2)c2ccc(O)cc2S(=O)(=O)[O-])cc1.[Na+].[Na+] [Green #3, Fast Green FCF] | some adenocytes and connective tissue/capillaries were strongly stained | – | Staining of GFP-Ras^V12 positive cancerized cells versus MDCK normal cells [2, 7]: labeled GFP-Ras^V12-positive cancerized cell small aggregates more intensely than normal cells; also recorded: specific staining of cancer cells; LD50 ([5]; Rat, Oral): >2000 mg/kg
24 | Oc1cc(O)c2cc(O)c(-c3ccc(O)c(O)c3)[o+]c2c1 [Cyanidin] | – | – | LD50 ([5]; rat, in vivo): 1500 mg/kg
25 | O=S(=O)([O-])c1ccc2c(N=Nc3ccc(S(=O)(=O)[O-])c4ccccc34)c(O)c(S(=O)(=O)[O-])cc2c1.[Na+].[Na+].[Na+] [Red #2] | – | – | LD50 ([3]; Mouse, Intra-abdominal): 1000 mg/kg
26 | CCN(CC)c1ccc2c(-c3ccc(S(=O)(=O)[O-])cc3S(=O)(=O)[O-])c3ccc(=[N+](CC)CC)cc-3oc2c1.[Na+] [Red #106, Acid Red] | the cell membranes of epithelial cells and adenocytes, and connective tissue/capillaries were strongly stained | >20,000 mg/kg | Staining of GFP-Ras^V12 positive cancerized cells versus MDCK normal cells [2, 7]: labeled both cancerized cell small aggregates and normal cells; also recorded: staining of both normal cells and cancer cells; LD50 ([3]; Mouse, Oral, listed as Acid Red): >20000 mg/kg
27 | O=C([O-])c1ccccc1-c1c2cc(Br)c(=O)cc-2oc2[c]([Hg+])c([O-])c(Br)cc12.[Na+].[Na+].[OH-] [merbromin, reference compound] | – | – | Staining of GFP-Ras^V12 positive cancerized cells versus MDCK normal cells [2, 6]: intensely labeled in GFP-Ras^V12 positive cancerized cell small aggregates compared to normal cells; also recorded: GFP-Ras^V12 positive cells were preferentially stained
28 | CCCCC[C@H](O)CC(=O)CCc1ccc(O)c(OC)c1 [Gingerol, 6-gingerol] | preferentially stained epithelial cells/adenocytes | – | LD50 ([3]; mouse, in vivo, po): 250 mg/kg

Reference: patent publication US11293870B2, “Vital stain” (Mie University, priority 2013, dated 2022)
